Ends that are not written are not given here.
Experiments:
[1] = system: mouse bone marrow cells; assay: Cytotoxic inhibition test for induction of TL and Thy-1 antigens; type: cell-based; conditions: for absorption of antibodies directed against TL or Thy-1 by treated cells: unfractionated bone marrow cells, 100 ng/ml, 18 hours
Method: Thymin I and Thymin II were isolated from bovine thymus as described. Each was dissolved in phosphate buffered saline (containing 1 mg/ml of bovine serum albumen to minimize adsorbtive losses), distributed into 2 μg lots and lyophilized. Each polypeptide was reconstituted in tissue culture medium at the desired concentrations just prior to use.
(§1) Bone marrow cells were obtained from the femoral marrow. Both spleen and marrow cells were teased into single cell suspensions and washed three times in RPMI 1640 medium supplemented with 10 mM Hepes and 100 U/ml of penicillin and 100 μg/ml of streptomycin. The cells were then suspended in the same medium with 10% bovine serum at a concentration of 5.0×10^6 cells/ml. One milliliter of this suspension was incubated with an appropriate dilution of thymin in 16 mm plastic petrie dishes in a humidified atmosphere containing 5% CO2 in air. At the end of the incubation the cells were washed twice and held at 4° C. at a concentration of 5.0×10^6 cells/ml in culture medium until tested for the presence of TL or Thy-1(0).
ASL-1, a TL positive, Thy 1-2 (0-C3H) positive lymphoma of A strain mice was used as the target cell in all titrations of the antisera used in these experiments, and in the cytotoxic inhibition test to be described below. The lymophoma was maintained by weekly intraperitoneal passage in A/J mice. Lymphoma cells were labelled with Cr^51 and used as target cells in the cytotoxic inhibition test.
Antisera to either TL or Thy-1 (0) were titered to determine the quantity of antibody which was required to kill 50% of the target cells in a standard suspension. The appropriate amount of antiserum was added to each well of a microtiter plate with various dilutions of the cells being tested for their antigen content. The total volume was 0.15 ml. Cells expressing the antigen against which the antiserum was directed absorbed varying amounts of the antibody, and rendered less available to react with the Cr^51 labelled target cells which were added subsequently. The concentration of antibody used was extremely critical to the sensitivity of the test. The antisera to TL or Thy-1 (0) and the cells being tested for their antigen content were incubated together at 4° C. for 90 minutes. After this incubation 50,000 target cells in a volume of […] were added and the incubation continued in the cold for an additional 30 minutes to permit the sensitization of the target cells by the remaining unabsorbed antibody. The plates were then centrifuged at 1,500 rpm for 10 minutes and the supernatant fluid removed. The pelleted cells were resuspended in 0.1 ml or RPMI 1640, containing 4% fresh rabbit serum as a source of complement, and incubated for 45 minutes at 37° C. The cells were then repelleted by centrifugation and a 0.075 ml aliquot of the supernatant fluid was counted in an automatic gamma spectrometer to determine the amount of Cr^51 released from the target cells. All assays were performed in duplicate and the results were expressed by calculating the number of cells required to reduce the relative cytotoxic index (RCI) to 0.5. The RCI was calculated as follows: [formula]

[2] = system: neuromuscular transmission; assay: Electromyographic assay of neuromuscular transmission in mice after intraperitoneal injection; type: in vivo; conditions: for activity of the isolated fraction in producing neuromuscular block: QAE-Sephadex fractions, FIG. 3; for therapeutically effective amount: at least about; for dose producing a statistically significant (P < 0.001) decrement in the electromyographic response: 5 days after dose, supramaximal nerve stimulation 50 impulses per second; for mean decrement: height of tenth muscle action potential as % of the first: 5 days after doses above threshold, controls 94 ± 2%; for dose range at which active: test not stated
Method: To determine the neuromuscular action of Thymin I and Thymin II, the electromyographic response of mice 5 days after various doses of Thymin I or Thymin II is summarized in FIG. 4. Bovine serum albumin (0.5 mg/ml, 0.9% saline) was used as a protein stabilizer and controls were injected with the solvent alone.
In 15 control mice sampled at 75 sites the height of the tenth muscle action potential was 94 ± 2% (mean ± s.e.m.) of the height of the first. The mean values and s.e.m. (vertical bars) are shown for groups of 4-10 mice given various doses of Thymin I(o) and Thymin II (.quadrature.). Statistical significances of differences from the controls were calculated by Student's t-test and are shown by solid symbols (P < 0.001 ), half solid symbols (0.05 > P < 0.001) and open symbols (P > 0.05).
Mice were given 100 ng of Thymin I or solvent and five mice from each group were tested at various times. With supramaximal nerve stimulation at 50 impulses per second the height of the tenth muscle action potential was expressed as a percentage of the first. This change was calculated for five points in each of five to ten mice from each group. For each time point the change in Thymin-treated mice was expressed as a percentage of the change in solvent-treated control mice and the statistical significance of the difference was assessed by Student's t-test. A statistically significant (P < 0.001) abnormality in the electromyogram was first evident at 18 hours, was maximal at 24 hours and persisted through 5 days.
To make the determinations described in FIGS. 4 and 5, extracts were injected into test animals and neuromuscular transmission was studied after an interval of one to five days. Initial 100 g guinea pigs were injected intraperitoneally; neuromuscular transmission was studied in vitro with a preparation of the phrenic nerve and hemidiaphragm. Subsequently, 200 g rats were used; fractions were injected subcutaneously and neuromuscular transmission was assessed electromyographically. […] Female Swiss-Webster mice weighing 25-35 g were injected intraperitoneally, groups of five to ten mice being used to test each fraction. The animals were anesthetized with urethane and electromyography was performed as described. The muscle action potentials were recorded in each mouse following supramaximal nerve stimulation with 10 impulses at a rate of 50 per second. Five sites were sampled in each mouse and for each group of mice the mean standard deviation and s.e.m. were calculated for the change in the height of the muscle action, potential being expressed as a percentage of the height of the first impulse.
The statistical significance of differences found were assessed by student's t-test.

[3] = system: bone marrow cells; assay: Direct cytotoxic test (trypan blue) for TL induction, bone marrow cells; type: cell-based, mouse
Method: as §1
(§2) Bone marrow and spleen cells were obtained by flotation in BSA gradients similar to those used by Komuro and Boyse (Lancet, 10, 39, 1964). These cells were tested for their susceptibility to anti TL and Thy-1(0) antibodies in a direct cytotoxicity test, using the uptake of trypan blue as a measure of cell death.
(§3) The actual number of cells induced could not be determined in the cytotoxic inhibition assay since this test is a measure of the total antigen present in the culture. […] However, unless sufficient numbers of such cells are present they cannot be detected because of a substantial background usually found in such tests. […]

[4] = system: spleen cells; assay: Direct cytotoxic test (trypan blue) for TL induction, spleen cells; type: cell-based, mouse; conditions: 20 ng/ml, 2 hours, least dense BSA gradient fraction
Method: as §1, §2, §3

[5] = single injection of 100 ng, mice

Sequence	concentration of maximal activity [1]	lowest concentration at which active [1] [picogram per mll]	absorption of antibodies directed against TL or Thy-1 by treated cells [1]	activity of the isolated fraction in producing neuromuscular block [2]	therapeutically effective amount [2]	dose producing a statistically significant (P < 0.001) decrement in the electromyographic response ([2]; mice)	mean decrement: height of tenth muscle action potential as % of the first ([2]; mice) [%]	dose range at which active [2]	concentration giving maximal induction of TL and Thy-1 antigens ([1]; bone marrow cells) [ng/mL]	lowest concentration producing a measurable response (induction of TL and Thy-1 antigens) ([1]; bone marrow cells) [pg/mL]	relative potency in inducing TL and Thy-1 antigens ([1]; compared with Thymin II)	relative activity on neuromuscular transmission ([2]; compared with Thymin II)	time at which the electromyogram abnormality was maximal [2, 5] [h]	time through which the electromyogram abnormality persisted [2, 5] [days]	time at which the electromyogram abnormality was first evident ([2]; single injection of 100 ng, mice, P < 0.001) [h]	bone marrow cells killed by anti TL antiserum plus complement ([3]; 20 ng/ml, 2 hours, least dense BSA gradient fraction) [%]	highest value of cells killed by anti TL antiserum plus complement ([3]; other experiments, tissue not stated) [%]	spleen cells killed by anti TL antiserum plus complement [4] [%]
SQFLEDPSVLTKEKLKSELVANNVTLPAGEQRKDVYVQLYLQTLTAVKR [Thymin II, H2 n--ser--gln--phe--leu--glu--asp--pro--ser--val--leu--thr--lys--glu--lys--leu--lys--ser--glu--leu--val--ala--asn--asn--val--thr--leu--pro--ala--gly--glu--gln--arg--lys--asp--val--tyr--val--gln--leu--tyr--leu--gln--thr--leu--thr--ala--val--lys--arg--cooh]	0.2-2 nanogram per mll	20	absorbed antibodies	active	at least 1.3 μg/kg of body weight	above 32 ng/mouse	82	about 0.1 mg/kg of body weight										
GQFLEDPSVLTKEKLKSELVANNVTLPAGEQRKDVYVQLYLQHLTAVKR [Thymin I, H2 n--gly--gln--phe--leu--glu--asp--pro--ser--val--leu--thr--lys--glu--lys--leu--lys--ser--glu--leu--val--ala--asn--asn--val--thr--leu--pro--ala--gly--glu--gln--arg--lys--asp--val--tyr--val--gln--leu--tyr--leu--gln--his--leu--thr--ala--val--lys--arg--cooh]	0.2-2 nanogram per mll	20	absorbed antibodies	active	at least 0.20 μg/kg of body weight	above 4 ng/mouse	84	about 0.1 mg/kg of body weight	2	20	slightly more potent	slightly more active	24	5	18	21	≤ 28	18

Source: US4120951A, “Polypeptide hormones of the thymus” (Sloan-Kettering Institute for Cancer Research, priority 1977, dated 1978)
